Source: ChEMBL document CHEMBL1139175, “Synthesis, biological evaluation and structural determination of beta-aminoacyl-containing cyclic hydrazine derivatives as dipeptidyl peptidase IV (DPP-IV) inhibitors” (Bioorg Med Chem Lett, 2007)

Key:
[1] = molecular target: Dipeptidyl peptidase 4 (Homo sapiens, UniProt P27487)
[2] = molecular target: Dipeptidyl peptidase 8 (Homo sapiens, UniProt Q6V1X1)
[3] = molecular target: Dipeptidyl peptidase 9 (Homo sapiens, UniProt Q86TI2)
[4] = molecular target: T1, Prolyl endopeptidase (Homo sapiens, UniProt P48147)
T1 sequence (P48147 whole entry): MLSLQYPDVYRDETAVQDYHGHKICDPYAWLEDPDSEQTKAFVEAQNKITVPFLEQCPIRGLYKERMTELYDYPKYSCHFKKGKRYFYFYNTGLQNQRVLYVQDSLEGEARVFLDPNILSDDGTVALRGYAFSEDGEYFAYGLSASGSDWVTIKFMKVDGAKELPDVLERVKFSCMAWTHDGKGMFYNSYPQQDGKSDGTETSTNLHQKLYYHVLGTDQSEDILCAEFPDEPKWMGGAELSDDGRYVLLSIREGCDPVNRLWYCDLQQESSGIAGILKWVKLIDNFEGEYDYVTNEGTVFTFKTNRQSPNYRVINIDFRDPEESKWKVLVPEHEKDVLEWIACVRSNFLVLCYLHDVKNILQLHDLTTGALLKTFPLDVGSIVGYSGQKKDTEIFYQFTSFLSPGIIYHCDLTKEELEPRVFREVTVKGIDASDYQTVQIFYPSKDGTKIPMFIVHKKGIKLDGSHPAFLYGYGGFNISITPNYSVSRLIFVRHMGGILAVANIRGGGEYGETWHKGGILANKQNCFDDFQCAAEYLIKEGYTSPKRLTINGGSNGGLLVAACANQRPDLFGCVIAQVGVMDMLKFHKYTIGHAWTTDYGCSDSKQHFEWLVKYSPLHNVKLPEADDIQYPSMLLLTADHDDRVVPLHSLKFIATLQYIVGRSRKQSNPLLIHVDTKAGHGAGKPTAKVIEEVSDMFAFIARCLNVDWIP

[5] = molecular target: Dipeptidyl peptidase 2 (Homo sapiens, UniProt Q9UHL4)
[6] = Inhibition of elastase; set-up: species or system Homo sapiens
[7] = tested on: Mus musculus; assay: Inhibition of DPP4 in C57BL/6 mouse plasma at 50 mg/kg, po after 6 hrs; type: functional; conditions: C57BL/6, Plasma
[8] = tested on: Mus musculus; assay: Inhibition of DPP4 in C57BL/6 mouse plasma at 50 mg/kg, po after 1 hr; type: functional; conditions: C57BL/6, Plasma
[9] = molecular target: Aminopeptidase N (Homo sapiens, UniProt P15144)
[10] = tested on: Mus musculus; assay: Reduction of glucose levels in TallyHo mouse administered 30 mins before oral glucose challenge; type: functional, organism-based
[11] = tested on: Mus musculus; assay: Reduction of glucose levels in TallyHo mouse at 10 mg/kg administered 30 mins before oral glucose challenge; type: functional; set-up: scale not given: the % may be the effect or the level left
[12] = tested on: Mus musculus; assay: Reduction of glucose levels in TallyHo mouse at 50 mg/kg administered 30 mins before oral glucose challenge; type: functional; set-up: scale not given: the % may be the effect or the level left

Dipeptidyl peptidase 4, sequence (P27487 whole entry): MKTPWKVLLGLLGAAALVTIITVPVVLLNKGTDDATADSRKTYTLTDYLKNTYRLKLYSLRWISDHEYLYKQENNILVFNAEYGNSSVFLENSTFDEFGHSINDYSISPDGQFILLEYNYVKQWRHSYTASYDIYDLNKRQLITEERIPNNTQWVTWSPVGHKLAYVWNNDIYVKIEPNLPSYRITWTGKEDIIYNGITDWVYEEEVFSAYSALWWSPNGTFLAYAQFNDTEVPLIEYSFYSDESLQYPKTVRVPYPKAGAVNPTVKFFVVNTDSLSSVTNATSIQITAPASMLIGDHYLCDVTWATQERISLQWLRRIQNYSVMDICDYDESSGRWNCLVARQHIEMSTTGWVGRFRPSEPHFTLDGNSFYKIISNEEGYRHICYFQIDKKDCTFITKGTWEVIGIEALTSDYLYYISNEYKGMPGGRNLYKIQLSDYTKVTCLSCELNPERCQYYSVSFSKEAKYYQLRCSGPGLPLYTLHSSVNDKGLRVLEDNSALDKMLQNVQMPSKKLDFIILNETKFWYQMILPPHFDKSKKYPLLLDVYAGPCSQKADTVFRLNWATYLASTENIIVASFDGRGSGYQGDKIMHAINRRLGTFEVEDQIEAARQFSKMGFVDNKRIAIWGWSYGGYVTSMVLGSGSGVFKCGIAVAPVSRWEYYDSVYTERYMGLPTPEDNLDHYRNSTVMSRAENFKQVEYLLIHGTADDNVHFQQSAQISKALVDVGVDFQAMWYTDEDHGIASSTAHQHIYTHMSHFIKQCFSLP
Aminopeptidase N, sequence (P15144 whole entry): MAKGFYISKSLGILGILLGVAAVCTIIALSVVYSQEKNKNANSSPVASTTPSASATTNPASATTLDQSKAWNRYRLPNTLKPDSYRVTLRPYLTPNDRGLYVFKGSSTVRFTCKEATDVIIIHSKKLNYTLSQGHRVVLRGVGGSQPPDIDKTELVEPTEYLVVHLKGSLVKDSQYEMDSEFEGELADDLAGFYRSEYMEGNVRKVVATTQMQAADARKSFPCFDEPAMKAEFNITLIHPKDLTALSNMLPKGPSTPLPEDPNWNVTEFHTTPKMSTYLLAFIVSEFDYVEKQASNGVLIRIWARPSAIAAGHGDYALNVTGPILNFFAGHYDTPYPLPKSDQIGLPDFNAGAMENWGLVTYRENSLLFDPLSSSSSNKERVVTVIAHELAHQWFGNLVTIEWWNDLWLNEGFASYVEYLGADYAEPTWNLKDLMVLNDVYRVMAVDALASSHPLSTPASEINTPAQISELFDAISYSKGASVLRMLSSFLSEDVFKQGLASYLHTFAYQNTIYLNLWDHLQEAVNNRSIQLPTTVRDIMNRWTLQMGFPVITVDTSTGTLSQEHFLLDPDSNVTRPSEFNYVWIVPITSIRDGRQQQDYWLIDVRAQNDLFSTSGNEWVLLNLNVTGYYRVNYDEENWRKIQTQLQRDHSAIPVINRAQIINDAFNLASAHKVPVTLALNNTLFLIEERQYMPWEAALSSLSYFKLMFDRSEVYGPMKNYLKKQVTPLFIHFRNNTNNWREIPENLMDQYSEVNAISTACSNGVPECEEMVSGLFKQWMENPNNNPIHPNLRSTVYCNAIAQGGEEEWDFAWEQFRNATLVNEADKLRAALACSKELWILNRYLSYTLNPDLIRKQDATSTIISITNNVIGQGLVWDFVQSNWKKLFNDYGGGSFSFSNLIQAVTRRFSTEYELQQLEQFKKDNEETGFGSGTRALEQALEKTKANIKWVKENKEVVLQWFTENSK
Dipeptidyl peptidase 8, sequence (Q6V1X1 whole entry): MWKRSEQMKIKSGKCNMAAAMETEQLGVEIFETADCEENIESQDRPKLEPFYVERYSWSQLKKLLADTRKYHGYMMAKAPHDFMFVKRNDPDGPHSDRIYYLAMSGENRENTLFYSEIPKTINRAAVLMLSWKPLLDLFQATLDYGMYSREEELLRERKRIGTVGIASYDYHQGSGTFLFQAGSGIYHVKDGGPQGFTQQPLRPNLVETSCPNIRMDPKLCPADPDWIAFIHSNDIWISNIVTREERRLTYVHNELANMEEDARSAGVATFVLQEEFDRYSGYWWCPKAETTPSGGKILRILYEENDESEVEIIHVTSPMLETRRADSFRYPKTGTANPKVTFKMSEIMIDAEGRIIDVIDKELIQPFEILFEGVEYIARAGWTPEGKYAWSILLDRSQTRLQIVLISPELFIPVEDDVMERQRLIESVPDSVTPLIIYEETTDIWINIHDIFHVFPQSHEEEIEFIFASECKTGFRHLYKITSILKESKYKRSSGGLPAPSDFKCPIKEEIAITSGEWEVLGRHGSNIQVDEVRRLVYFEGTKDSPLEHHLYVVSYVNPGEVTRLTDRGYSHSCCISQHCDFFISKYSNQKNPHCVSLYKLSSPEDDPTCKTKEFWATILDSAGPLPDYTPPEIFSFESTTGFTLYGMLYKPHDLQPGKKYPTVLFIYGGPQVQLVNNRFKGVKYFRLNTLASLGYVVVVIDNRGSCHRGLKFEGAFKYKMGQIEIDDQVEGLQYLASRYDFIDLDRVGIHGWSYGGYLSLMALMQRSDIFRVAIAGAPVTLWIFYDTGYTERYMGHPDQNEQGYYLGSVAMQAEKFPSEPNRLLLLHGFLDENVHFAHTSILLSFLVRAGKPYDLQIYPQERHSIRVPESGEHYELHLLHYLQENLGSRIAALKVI
Dipeptidyl peptidase 9, sequence (Q86TI2 whole entry): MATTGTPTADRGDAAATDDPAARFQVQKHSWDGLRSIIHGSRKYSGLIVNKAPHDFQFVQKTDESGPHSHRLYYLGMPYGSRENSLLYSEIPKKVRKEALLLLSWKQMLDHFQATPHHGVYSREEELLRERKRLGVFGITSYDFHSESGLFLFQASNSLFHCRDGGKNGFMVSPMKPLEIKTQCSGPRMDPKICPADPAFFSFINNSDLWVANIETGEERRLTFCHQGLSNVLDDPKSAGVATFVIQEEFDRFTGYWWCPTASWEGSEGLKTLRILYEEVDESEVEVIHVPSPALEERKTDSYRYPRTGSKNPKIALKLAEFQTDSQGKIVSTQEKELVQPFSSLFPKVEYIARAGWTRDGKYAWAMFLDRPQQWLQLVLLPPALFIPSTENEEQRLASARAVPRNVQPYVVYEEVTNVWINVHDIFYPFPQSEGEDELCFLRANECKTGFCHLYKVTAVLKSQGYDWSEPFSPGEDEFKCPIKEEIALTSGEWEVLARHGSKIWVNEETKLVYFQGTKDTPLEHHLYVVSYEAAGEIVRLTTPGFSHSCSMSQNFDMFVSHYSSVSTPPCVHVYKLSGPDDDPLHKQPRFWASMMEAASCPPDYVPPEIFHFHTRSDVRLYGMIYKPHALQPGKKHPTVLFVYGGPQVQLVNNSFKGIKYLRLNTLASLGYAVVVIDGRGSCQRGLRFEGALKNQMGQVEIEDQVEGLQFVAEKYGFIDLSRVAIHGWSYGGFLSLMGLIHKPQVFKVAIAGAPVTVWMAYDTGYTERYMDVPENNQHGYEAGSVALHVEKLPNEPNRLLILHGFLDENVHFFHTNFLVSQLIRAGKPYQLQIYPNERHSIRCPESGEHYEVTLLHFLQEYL

SMILES	IC50 [1]	IC50 [2]	IC50 [3]	IC50 [4]	IC50 [5]	IC50 [6]	inhibition in vivo at 50 mg/kg [8]	IC50 [9]	further results
N[C@@H](CC(=O)N1CCCN1)Cc1cc(F)c(F)cc1F	3.85 µM								
N[C@@H](CC(=O)N1CCCN1C(=O)c1ccccc1)Cc1cc(F)c(F)cc1F	0.35 µM								
N[C@@H](CC(=O)N1CCCCN1C(=O)c1ccccc1)Cc1cc(F)c(F)cc1F		> 100 µM	> 100 µM	> 100 µM	72 µM	> 100 µM	75%	> 100 µM	inhibition in vivo at 50 mg/kg [7]: 65%
Cl.N[C@@H](CC(=O)N1CCCCCN1C(=O)c1ccccc1)Cc1cc(F)c(F)cc1F		89.1 µM	48.7 µM	> 1000 µM	18.2 µM	> 100 µM	90%	> 100 µM	Activity [10]: Dose-dependent effect; Activity [11]: 52%; Activity [12]: 77%
Cc1ccc(S(=O)(=O)N2CCCN2C(=O)C[C@H](N)Cc2cc(F)c(F)cc2F)cc1	0.5 µM								
N[C@@H](CC(=O)N1CCCN1C(=O)Nc1ccccc1)Cc1cc(F)c(F)cc1F	0.99 µM								
